Measured values reported in US20260158102A1, “CYCLIC PEPTIDE DERIVATIVE COMPOSITION FOR TREATING OR PREVENTING NEUROPATHIC PAIN AND/OR INFLAMMATORY PAIN” (DKS Co. Ltd., priority 2022, published 2026).

Legend:
[1] = Observation of general condition in rat STZ-induced diabetes model; type: in vivo; settings: number of animals, 10 per group
Experimental: (§1) Compound 9 (50 mg/mL) was diluted with water for injection to obtain a 1 mg/mL administration specimen. For the specimens to be administered at 0.1 mg/mL and 0.01 mg/mL, the specimen to be administered at 1 mg/mL was diluted stepwise with water for injection. Each administration specimen was divided into PP disposable tubes every day and stored in a storehouse (freezer: MDF-MU339H-PJ, PHC Corporation) under the condition of freezing (−30° C. to −20° C., measured value: −26.4 to −24.5° C.). Preparation was performed on the day before the start of administration.
(§2) Water for injection was added to and dissolved in Pregabalin taken out from the capsule to obtain 2 mg/mL. It was prepared before use.
(§3) • Animal species: rat (SPF) • Strain: Crl: CD (SD) • Date of animal acquisition, gender, age in weeks, number of animals acquired, and weight range after 1 day of acquisition • First and second courses: Apr. 6, 2022, male, 7 weeks old, 35 animals, 217 to 237 g • Third and fourth courses: Apr. 13, 2022, male, 7 weeks old, 35 animals, 216 to 235 g • Source: […].
(§4) • Dose volume: calculated at 2 mL/kg based on the body weight on the day of administration. • Number of times of administration: once • Day of administration: 7 days before the day of starting administration of the test substance.
(§5) • Dose volume: calculated at 1 mL/kg based on the body weight on the day of administration. • Number of times of administration: 9 times • Interval of administration: once every 3 days (evaluation was performed on the day after administration) • Day of starting administration: day 8 of STZ administration (day of STZ administration is counted as day 1).
(§6) • Dose volume: calculated at 10 mL/kg based on the body weight on the day of administration. • Number of times of administration: Administration was performed once on the day of evaluation of neuropathic pain, twice in total, and on the other days of administration, a vehicle for a control substance (water for injection) was orally administered.
• Observation of general condition • Observation was performed once a day.

[2] = Measurement of blood glucose level in rat STZ-induced diabetes model; type: in vivo; settings: mean ± SE
Experimental: as §1, §2, §3, §4, §5, §6
On days 7 and 35 of STZ administration, about 50 μL of blood was collected from the tail vein using a winged injection needle (Terumo Corporation) equipped with a heparinized capillary (DRUMMOND […]).
The blood obtained above was centrifuged [centrifugal conditions: 4° C., 3,000 rpm (×2,150 g), 15 min] with a centrifuge (CF 9RX, Hitachi Koki Co., Ltd.) to obtain plasma. Blood glucose levels of a part of plasma obtained by blood collection on day 7 and day 35 after STZ administration were measured by hexokinase G-6 PDH method (L-type Wako Glu2, FUJIFILM Wako Pure Chemical Corporation) using a biochemical automatic analyzer (AU480, Beckman Coulter, Inc.). […] The plasma after the measurement was discarded.
The mean and standard error of each group were calculated for the 50% withdrawal threshold, body weight, and blood glucose level.
The body weight was an integer.
No significant difference test of body weight and blood glucose levels was performed.

[3] = 0.01 mg/kg iv, day 35 of STZ administration
[4] = 0.1 mg/kg iv, day 35 of STZ administration
[5] = 1 mg/kg iv, day 35 of STZ administration

`CC[C@@]1(C)Oc2cc(ccc2O)C[C@H](NC)C(=O)N[C@@H](C(C)C)C(=O)N[C@@H]1C(=O)N[C@@H](CC(=O)O)C(=O)O` [Compound 9] gave a general condition ([1]; 0.01 mg/kg iv, day 1 of STZ administration) of 10, a general condition ([1]; 0.01 mg/kg iv, day 2 of STZ administration) of 10 and a general condition ([1]; 0.01 mg/kg iv, day 3 of STZ administration) of 10. It also gave a general condition ([1]; 0.01 mg/kg iv, day 4 of STZ administration) of 10, a general condition ([1]; 0.01 mg/kg iv, day 5 of STZ administration) of 10 and a general condition ([1]; 0.01 mg/kg iv, day 6 of STZ administration) of 10. For the same compound, the general condition ([1]; 0.01 mg/kg iv, day 7 of STZ administration) was 10, the general condition ([1]; 0.01 mg/kg iv, day 8 of STZ administration) was 10 and the general condition ([1]; 0.01 mg/kg iv, day 9 of STZ administration) was 10. The general condition ([1]; 0.01 mg/kg iv, day 10 of STZ administration) was 10, the general condition ([1]; 0.01 mg/kg iv, day 11 of STZ administration) was 10 and the general condition ([1]; 0.01 mg/kg iv, day 12 of STZ administration) was 10. The general condition ([1]; 0.01 mg/kg iv, day 13 of STZ administration) was 10, the general condition ([1]; 0.01 mg/kg iv, day 14 of STZ administration) was 10 and the general condition ([1]; 0.01 mg/kg iv, day 15 of STZ administration) was 10. The general condition ([1]; 0.01 mg/kg iv, day 16 of STZ administration) was 10, the general condition ([1]; 0.01 mg/kg iv, day 17 of STZ administration) was 10 and the general condition ([1]; 0.01 mg/kg iv, day 18 of STZ administration) was 10. The general condition ([1]; 0.01 mg/kg iv, day 19 of STZ administration) was 10, the general condition ([1]; 0.01 mg/kg iv, day 20 of STZ administration) was 10 and the general condition ([1]; 0.01 mg/kg iv, day 21 of STZ administration) was 10. The general condition ([1]; 0.01 mg/kg iv, day 22 of STZ administration) was 10, the general condition ([1]; 0.01 mg/kg iv, day 23 of STZ administration) was 10 and the general condition ([1]; 0.01 mg/kg iv, day 24 of STZ administration) was 10. The general condition ([1]; 0.01 mg/kg iv, day 25 of STZ administration) was 10, the general condition ([1]; 0.01 mg/kg iv, day 26 of STZ administration) was 10 and the general condition ([1]; 0.01 mg/kg iv, day 27 of STZ administration) was 10. The general condition ([1]; 0.01 mg/kg iv, day 28 of STZ administration) was 10, the general condition ([1]; 0.01 mg/kg iv, day 29 of STZ administration) was 10 and the general condition ([1]; 0.01 mg/kg iv, day 30 of STZ administration) was 10. It also gave a general condition ([1]; 0.01 mg/kg iv, day 31 of STZ administration) of 10, a general condition ([1]; 0.01 mg/kg iv, day 32 of STZ administration) of 10 and a general condition ([1]; 0.01 mg/kg iv, day 33 of STZ administration) of 10. For the same compound, the general condition ([1]; 0.01 mg/kg iv, day 34 of STZ administration) was 10, the general condition [1, 3] was 10 and the general condition ([1]; 0.1 mg/kg iv, day 1 of STZ administration) was 10. For the same compound, the general condition ([1]; 0.1 mg/kg iv, day 2 of STZ administration) was 10, the general condition ([1]; 0.1 mg/kg iv, day 3 of STZ administration) was 10 and the general condition ([1]; 0.1 mg/kg iv, day 4 of STZ administration) was 10. It also gave a general condition ([1]; 0.1 mg/kg iv, day 5 of STZ administration) of 10, a general condition ([1]; 0.1 mg/kg iv, day 6 of STZ administration) of 10 and a general condition ([1]; 0.1 mg/kg iv, day 7 of STZ administration) of 10. The general condition ([1]; 0.1 mg/kg iv, day 8 of STZ administration) was 10, the general condition ([1]; 0.1 mg/kg iv, day 9 of STZ administration) was 10 and the general condition ([1]; 0.1 mg/kg iv, day 10 of STZ administration) was 10. For the same compound, the general condition ([1]; 0.1 mg/kg iv, day 11 of STZ administration) was 10, the general condition ([1]; 0.1 mg/kg iv, day 12 of STZ administration) was 10 and the general condition ([1]; 0.1 mg/kg iv, day 13 of STZ administration) was 10. For the same compound, the general condition ([1]; 0.1 mg/kg iv, day 14 of STZ administration) was 10, the general condition ([1]; 0.1 mg/kg iv, day 15 of STZ administration) was 10 and the general condition ([1]; 0.1 mg/kg iv, day 16 of STZ administration) was 10. It also gave a general condition ([1]; 0.1 mg/kg iv, day 17 of STZ administration) of 10, a general condition ([1]; 0.1 mg/kg iv, day 18 of STZ administration) of 10 and a general condition ([1]; 0.1 mg/kg iv, day 19 of STZ administration) of 10. The general condition ([1]; 0.1 mg/kg iv, day 20 of STZ administration) was 10, the general condition ([1]; 0.1 mg/kg iv, day 21 of STZ administration) was 10 and the general condition ([1]; 0.1 mg/kg iv, day 22 of STZ administration) was 10. The general condition ([1]; 0.1 mg/kg iv, day 23 of STZ administration) was 10, the general condition ([1]; 0.1 mg/kg iv, day 24 of STZ administration) was 10 and the general condition ([1]; 0.1 mg/kg iv, day 25 of STZ administration) was 10. It also gave a general condition ([1]; 0.1 mg/kg iv, day 26 of STZ administration) of 10, a general condition ([1]; 0.1 mg/kg iv, day 27 of STZ administration) of 10 and a general condition ([1]; 0.1 mg/kg iv, day 28 of STZ administration) of 10. For the same compound, the general condition ([1]; 0.1 mg/kg iv, day 29 of STZ administration) was 10, the general condition ([1]; 0.1 mg/kg iv, day 30 of STZ administration) was 10 and the general condition ([1]; 0.1 mg/kg iv, day 31 of STZ administration) was 10. The general condition ([1]; 0.1 mg/kg iv, day 32 of STZ administration) was 10, the general condition ([1]; 0.1 mg/kg iv, day 33 of STZ administration) was 10 and the general condition ([1]; 0.1 mg/kg iv, day 34 of STZ administration) was 10. It also gave a general condition [1, 4] of 10, a general condition ([1]; 1 mg/kg iv, day 1 of STZ administration) of 10 and a general condition ([1]; 1 mg/kg iv, day 2 of STZ administration) of 10. It also gave a general condition ([1]; 1 mg/kg iv, day 3 of STZ administration) of 10, a general condition ([1]; 1 mg/kg iv, day 4 of STZ administration) of 10 and a general condition ([1]; 1 mg/kg iv, day 5 of STZ administration) of 10. For the same compound, the general condition ([1]; 1 mg/kg iv, day 6 of STZ administration) was 10, the general condition ([1]; 1 mg/kg iv, day 7 of STZ administration) was 10 and the general condition ([1]; 1 mg/kg iv, day 8 of STZ administration) was 10. The general condition ([1]; 1 mg/kg iv, day 9 of STZ administration) was 10, the general condition ([1]; 1 mg/kg iv, day 10 of STZ administration) was 10 and the general condition ([1]; 1 mg/kg iv, day 11 of STZ administration) was 10. It also gave a general condition ([1]; 1 mg/kg iv, day 12 of STZ administration) of 10, a general condition ([1]; 1 mg/kg iv, day 13 of STZ administration) of 10 and a general condition ([1]; 1 mg/kg iv, day 14 of STZ administration) of 10. The general condition ([1]; 1 mg/kg iv, day 15 of STZ administration) was 10, the general condition ([1]; 1 mg/kg iv, day 16 of STZ administration) was 10 and the general condition ([1]; 1 mg/kg iv, day 17 of STZ administration) was 10. For the same compound, the general condition ([1]; 1 mg/kg iv, day 18 of STZ administration) was 10, the general condition ([1]; 1 mg/kg iv, day 19 of STZ administration) was 10 and the general condition ([1]; 1 mg/kg iv, day 20 of STZ administration) was 10. For the same compound, the general condition ([1]; 1 mg/kg iv, day 21 of STZ administration) was 10, the general condition ([1]; 1 mg/kg iv, day 22 of STZ administration) was 10 and the general condition ([1]; 1 mg/kg iv, day 28 of STZ administration) was 10. It also gave a general condition ([1]; 1 mg/kg iv, day 29 of STZ administration) of 10, a general condition ([1]; 1 mg/kg iv, day 30 of STZ administration) of 10 and a general condition ([1]; 1 mg/kg iv, day 31 of STZ administration) of 10. The general condition ([1]; 1 mg/kg iv, day 32 of STZ administration) was 10, the general condition ([1]; 1 mg/kg iv, day 33 of STZ administration) was 10 and the general condition ([1]; 1 mg/kg iv, day 34 of STZ administration) was 10. The general condition [1, 5] was 10, the “Blood glucose level, Glu” value ([2]; 0.01 mg/kg iv group, day 7 of STZ administration (before start of dosing)) was 581.8 ± 18.5 mg/dL and the “Blood glucose level, Glu” value [2, 3] was 623.6 ± 22.0 mg/dL. The “Blood glucose level, Glu” value ([2]; 0.1 mg/kg iv group, day 7 of STZ administration (before start of dosing)) was 576.3 ± 15.5 mg/dL, the “Blood glucose level, Glu” value [2, 4] was 608.4 ± 32.7 mg/dL and the “Blood glucose level, Glu” value ([2]; 1 mg/kg iv group, day 7 of STZ administration (before start of dosing)) was 562.7 ± 14.7 mg/dL. For the same compound, the “Blood glucose level, Glu” value [2, 5] was 605.6 ± 18.9 mg/dL.
